Data as given in PubChem BioAssay (NCI).
Values joined by “and” are separate entries in the source; they are usually repeats but may differ in a detail not shown here. Equal entries are not always repeated.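 Each compound was tested at five concentrations against cells in 96-well plates for 48 hours. GI50 is the concentration that inhibits growth by half. Definition used: TGI = concentration required for complete inhibition of growth.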

Key:
Experiment in all cases: NCI-60 cell line screen, 48 h
[1] = system: OVCAR-8 ovarian
[2] = system: SF-268 CNS
[3] = system: UACC-257 melanoma
[4] = system: A498 renal
[5] = system: HOP-92 NSCLC
[6] = system: DU-145 prostate
[7] = system: EKVX NSCLC
[8] = system: COLO 205 colon
[9] = system: RPMI-8226 leukemia
[10] = system: HCC-2998 colon

| SMILES | TGI [1] [µM] | TGI [2] [µM] | TGI [3] [µM] | TGI [4] | TGI [5] [µM] | TGI [6] | TGI [7] [µM] | TGI [8] [µM] | TGI [9] [µM] | GI50 [1] [µM] | GI50 [2] [µM] | GI50 [3] [µM] | GI50 [4] | GI50 [5] [µM] | GI50 [6] | GI50 [7] [µM] | GI50 [8] [µM] | GI50 [9] [µM] | GI50 [10] [µM] | TGI [10] [µM] |
| --- | --- | --- | --- | --- | --- | --- | --- | --- | --- | --- | --- | --- | --- | --- | --- | --- | --- | --- | --- | --- |
| O=C(O)c1nc2nc(Cl)c(Cl)nc2[nH]1 | > 100 | > 100 | > 100 | > 100 µM | > 100 | > 100 µM | > 100 | > 100 | > 100 |  |  |  |  |  |  |  |  |  |  |  |
| CCOC(=O)C1=C(C)N(c2ccc(F)cc2F)[C@]2(C#N)C(O)=C(Cl)C(Cl)=C(O)[C@]12C#N | > 100 | > 100 | > 100 | > 100 µM | > 100 | > 100 µM | > 100 | > 100 | > 100 | > 100 | > 100 | > 100 | > 100 µM | 1.77 | > 100 µM | > 100 | > 100 | 27.1 |  |  |
| Nc1ccccc1SC(CC(=O)c1ccccc1)c1cccc([N+](=O)[O-])c1 (centres undefined) | 28.5 | 31.3 | 31.1 | 30.9 µM |  | 28 µM |  | 34.7 | 19 | 14.9 | 16.3 | 17.1 | 16.6 µM |  | 14.7 µM |  | 19.1 | 3.89 | 17.3 | 31.3 |
| C=C(C)CCOC(c1ccccc1)(c1ccccc1)c1ccccc1 | > 100 | > 100 | 80.5 |  | > 100 |  |  | > 100 | > 100 |  |  |  |  |  |  |  |  |  |  | > 100 |
| O=C(/C=C/c1ccc([N+](=O)[O-])cc1)c1ccc(NCc2nc3ccccc3[nH]2)cc1 | 12.9 | 26.6 | 13.8 | 24.1 µM | 21.8 |  | 22.2 | 7.71 |  |  |  |  |  |  |  |  |  |  |  | 6.38 |
| N#C/C(=C\c1cccc(Cl)c1Cl)c1ccccc1 | > 100 | > 100 | > 100 | 89.6 µM | > 82.3 |  | > 100 | > 100 | > 89.1 |  |  |  |  |  |  |  |  |  |  | > 100 |
| O=C1CCC2(c3ccc(Cl)cc3)Nc3ccncc3N12 (centres undefined) | > 10 | > 10 | > 10 |  | > 10 | > 10 µM | > 10 |  |  |  |  |  |  |  |  |  |  |  |  |  |
| Cc1cc2c(C)[nH]nc2c(C(=O)O)c1C | > 100 |  | > 100 | > 100 µM |  |  | > 100 | > 100 | > 100 |  |  |  |  |  |  |  |  |  |  | > 100 |
| COc1ccc(C)cc1-c1cc(Sc2ccccc2)c(-c2cc(C)ccc2OC)o1 | > 31.6 | > 31.6 | > 31.6 | > 31.6 µM | > 31.6 |  | > 31.6 | > 31.6 | > 31.6 |  |  |  |  |  |  |  |  |  |  | > 31.6 |
| CCCCCCCCCCCCCCCC[N+](C)(C)Cc1ccccc1 |  |  |  | 6.3 µM and 4.83 µM |  | 3.22 µM and 3.12 µM |  | 3.24 | 0.239 |  |  |  | 1.92 µM and 1.87 µM |  | 1.7 µM and 1.62 µM |  | 1.65 | 0.0516 | 0.923 | 2.38 |
